One experiment concerns MMP1. In words: Gene expression custom microarray, pooled keratinocyte line (Example 3): MMP1. As to conditions: pooled keratinocytes, 20 ppm, 24 hr. It is filed as cell-based, human. The method, then: (§1) Cell cultures: Received and began culture of pooled keratinocyte line from Promocell (C-12006; Lot #448Z026). Cells were seeded into a 75 cm2 flask and 2 6 well dishes for expansion and exposure per manufacturer's protocol using Keratinocyte Growth Medium (C2011B), Keratinocyte Supplement Mix (C39016) and CaCl (C34005). 2 ml of prepared solution were added to each of the 6 wells and 7 ml was added to the 75 cm2 flask.
(§2) Experimental phase: When the appropriate quantity of cells were grown, they were detached as described above, but at the final step were seeded into each well of one or more 6 well dishes. Each well received 2 ml of the cells suspended in suspension so they were seeded equally. The dishes were returned to the incubator until 85-95% confluency is reached.
(§3) It was at this stage that all wells were rinsed in PBS after aspirating the growth media. The compound(s) to be tested were previously mixed into a suitable solvent (e.g., DMSO or ethanol) that can be diluted to the desired concentration of test compound (10 μl) in the culture wells without exceeding maximum solvent concentrations and adversely effecting cell viability, and mixed with Basal Keratinocyte Media. NOTE: Standard maximum levels of solvent are 0.1% for DMSO and 0.5% for ETOH. The concentration for each tested compound/natural extract is generally listed in the left-hand column of Table 4. For certain compositions (e.g., compositions 15 and 16), other concentrations were used and are noted in the body of Table 4.
(§4) Every 2 wells on the 6 well plate served as a biological replicate for the purposes of RNA isolation and genetic expression evaluations making each 6 well dish an n=3 for the test compound contained in the media. […]
(§5) At the end of the 24 hr time period, the plates were removed from the incubator, the test media aspirated, and the cells rinsed with PBS. […] Allow 1 minute for saturation of the membrane and then centrifuge for 2 minutes to complete the RNA elution. • Quantify the quantity of RNA and store at −20 C° until use (no more than 1 month) […]

The test system of the next experiment is TLR2. In words: Gene expression custom microarray, pooled keratinocyte line (Example 3): TLR2. The experiment is classed as cell-based, human. As to conditions: pooled keratinocytes, 20 ppm, 24 hr. The procedure: as §1, §2, §3, §4, §5

Molecules are shown by their SMILES.

With `CCCCCCCCCCCCCCCC(=O)NCCO` [N-palmitoylethanolamide], the “↓MMP1 gene expression, fold increase or decrease vs untreated cells” value in the experiment with MMP1 was 12.2 fold. The “↑TLR2 gene expression, fold increase or decrease vs untreated cells” value with TLR2 is given as −1.3 fold.
On to `CC(C)[C@]12O[C@H]1[C@@H]1O[C@]13[C@]1(O[C@H]1C[C@H]1C4=C(CC[C@@]13C)C(=O)OC4)[C@@H]2O` [Triptolide], for which, in the experiment with MMP1, the “↓MMP1 gene expression, fold increase or decrease vs untreated cells” value is 1.2 fold. Moreover, the “↑TLR2 gene expression, fold increase or decrease vs untreated cells” value in the experiment on TLR2 was −2.9 fold.
In the same order, the values of `C=C(C)[C@@H]1CCC(C)=C[C@H]1c1c(O)cc(CCCCC)cc1O` [CBD, cannabidiol, reference compound] are 6.5 fold and 2.8 fold.

The record behind these values is patent publication US20220202739A1, “ENDOCANNABINOID MIMETIC AND ANTI-INFLAMMATORY COMPOUND CONTAINING COMPOSITIONS, METHODS OF PREPARATION AND USES THEREOF” (priority 2019, published 2022).
